Here are results for 1 compound from article PMC7803973, “Structural basis of malaria parasite phenylalanine tRNA-synthetase inhibition by bicyclic azetidines” (Nature Communications, 2021).

This assay has as its target T1, PvcFRS (Plasmodium vivax, UniProt A5K9S0).
T1 construct: Full-length PvcFRS was also purified according to the same protocol; vector-encoded tag of pETM11 (own knowledge: N-terminal His6 with TEV site); Ni-NTA purification; made in house; host or cells: E. coli strain B834
Description: Incubation of PvcFRS with BRD1389 and ATP analogue AMPPNP. Type of assay: binding. To be noted: PvcFRS with high concentrations of both BRD1389 and AMPPNP. An excerpt:
The diarylacetylene moiety of BRD1389 that occupies the L-Phe site is recognized via a bed of β-strand residues Ala541-Trp542-Gly543-Leu544 (Fig. 3b), while its edge phenyl ring is covered by Tyr497 where it provides an aromatic T-shaped π…π interaction at a distance of ~4.2 Å (Fig. 3b). In addition, the diarylacetylene moiety is surrounded by hydrophobic elements of Asn519, Gln457, and Glu459 (Fig. 3b). The urea moiety of BRD1389 is buried in a groove that is composed of Gly506, His508, Glu510, Lys512–513, Leu515, Ile552 and Pro549 (Figs. 3b, e and 4c). The urea/groove interactions are mainly stabilized by hydrophobic contacts, particularly from Pro549 and His508 while residues Val517, Ile483 and Pro549 provide sandwich support to the cyclopropoxy moiety (Figs. 3b and 4c). The urea component of BRD1389 forms hydrogen bonding interactions with main-chain N-atom of Ser545 (Fig. 3a, b). The above sets of extensive interactions position BRD1389 in an ‘L’ shaped conformation wherein its methoxy methyl group is surrounded by socket residues Arg443, Glu445, His451, and Phe455. […] This similarity highlights the importance of the three-dimensional shape and rigidity of the diazabicyclodecane scaffold in pre-orienting the molecular appendages for optimal target engagement. […]

T1 sequence (A5K464 whole entry): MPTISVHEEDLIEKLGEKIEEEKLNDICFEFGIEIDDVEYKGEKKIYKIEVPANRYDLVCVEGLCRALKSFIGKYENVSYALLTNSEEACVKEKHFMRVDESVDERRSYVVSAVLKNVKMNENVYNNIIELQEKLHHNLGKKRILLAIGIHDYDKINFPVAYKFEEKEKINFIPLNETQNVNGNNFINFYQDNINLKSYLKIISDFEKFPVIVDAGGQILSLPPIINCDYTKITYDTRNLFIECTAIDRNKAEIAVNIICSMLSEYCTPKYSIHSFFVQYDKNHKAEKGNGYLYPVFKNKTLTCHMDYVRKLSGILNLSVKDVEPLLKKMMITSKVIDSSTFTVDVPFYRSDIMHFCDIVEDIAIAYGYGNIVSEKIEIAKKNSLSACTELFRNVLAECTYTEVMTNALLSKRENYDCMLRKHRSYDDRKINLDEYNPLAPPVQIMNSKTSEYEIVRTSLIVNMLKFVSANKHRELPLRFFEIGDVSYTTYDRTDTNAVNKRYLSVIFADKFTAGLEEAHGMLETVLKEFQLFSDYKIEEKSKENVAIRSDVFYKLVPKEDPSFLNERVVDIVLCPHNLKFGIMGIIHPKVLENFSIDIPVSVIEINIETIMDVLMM
T1 sequence (A5K9S0 whole entry): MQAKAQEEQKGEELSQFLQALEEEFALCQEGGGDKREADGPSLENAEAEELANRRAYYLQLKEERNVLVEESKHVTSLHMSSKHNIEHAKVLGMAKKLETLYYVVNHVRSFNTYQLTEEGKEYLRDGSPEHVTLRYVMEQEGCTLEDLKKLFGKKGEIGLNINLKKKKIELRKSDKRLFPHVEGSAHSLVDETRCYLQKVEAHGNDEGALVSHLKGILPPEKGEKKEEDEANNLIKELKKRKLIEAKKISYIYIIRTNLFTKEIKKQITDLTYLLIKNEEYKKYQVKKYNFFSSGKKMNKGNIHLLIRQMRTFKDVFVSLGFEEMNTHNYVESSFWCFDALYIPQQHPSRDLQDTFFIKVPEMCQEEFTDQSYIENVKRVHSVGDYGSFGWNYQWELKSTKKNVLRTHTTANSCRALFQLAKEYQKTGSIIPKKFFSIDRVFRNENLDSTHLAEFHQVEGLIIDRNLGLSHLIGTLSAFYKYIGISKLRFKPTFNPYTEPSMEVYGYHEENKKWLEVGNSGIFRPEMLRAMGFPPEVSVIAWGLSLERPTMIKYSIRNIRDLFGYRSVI

Consider `COC[C@@H]1[C@H](c2ccc(C#Cc3ccccc3)cc2)[C@@H]2CN(C(=O)Nc3ccc(OC4CC4)cc3)C[C@@H](O)[C@@H](O)CN12` [BRD1389], for which the “Binding observed on co-incubation” value is on record as “observed only binding of BRD1389”.
